Experimental data published in PubChem BioAssay AID179 (DTP/NCI, 2004).
Where “and” joins values, the source holds several entries; their conditions need not be identical. Identical values can stand only once. Calls of active or inactive are those of the source.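 How the source made its calls: active means compounds giving half or more protection of infected cells from virus-caused growth loss, again on retest; inactive means the rest.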

Test system: CEM cells HIV-1 protection, formazan growth assay
Experiment: NCI AIDS Antiviral Assay
Conditions: for IC50: measured here: growth of uninfected CEM cells
Method in brief: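 Steps: treat uninfected and HIV-1-infected human CEM cells at five drug levels; quantify growth by soluble formazan; retest any compound reaching 50% protection; classify actives from the retest.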

| Structure (SMILES) | EC50 [µM] | IC50 | outcome |
| --- | --- | --- | --- |
| NCCCn1c(Cl)nc2ccccc21 | > 200 | > 200 µM |  |
| NCC1OC(OC2C(CO)OC(OC3C(O)C(N)CC(N)C3OC3OC(CO)C(O)CC3N)C2O)C(N)C(O)C1OC1OC(CO)C(O)C(O)C1O (stereo unspecified) |  |  | inactive |
| OC(Cc1ccc(Br)cc1)CN1CCC(c2ccccc2)CC1 (stereo unspecified) | > 229 | 17.8 µM and 9.55 µM |  |
| CCc1cc2c(cc1CCCC(=O)O)CC1(Cc3ccc(C(=O)O)cc3C1)C2 (stereo unspecified) | > 200 | 155 µM |  |
| Cc1cc(=O)[nH]c(CO)n1 | > 200 | > 200 µM |  |
| O=C(CN(C(=O)OC12CC3CC(CC(C3)C1)C2)C(=O)OC12CC3CC(CC(C3)C1)C2)Oc1ccc([N+](=O)[O-])cc1 | > 200 | 9.77 µM |  |
| Cc1oc(C)c2c1C(=O)c1ccccc1C2=O | > 200 | 123 µM |  |
| CCO/N=C(/N)c1ncn(Cc2ccccc2)c1NCC(OCC)OCC | > 661 | 339 µM |  |
| COc1ccc(NC2Oc3cc4c(cc3C(c3cc(OC)c(O)c(OC)c3)C2C)OCO4)cc1 (stereo unspecified) | > 200 | 3.63 µM |  |
| S=C(NNC1=NCCN1)Nc1ccccc1 | > 200 | 2.82 µM |  |
| COc1cc(O)cc2c1C(=O)C(C)O2 (stereo unspecified) | > 200 | > 200 µM |  |
| COc1ccc(N=Cc2ccc(N(CCC#N)S(=O)(=O)c3ccccc3)cc2)cc1 | > 162 | > 162 µM |  |
| COc1cc(C2c3cc4c(cc3OC(N3CCOCC3)C2C)OCO4)cc(OC)c1O (stereo unspecified) | > 200 | 8.51 µM |  |
| COc1ccc(OC)c2c3c(ccc12)C(c1ccccc1)OC3=O (stereo unspecified) |  |  | inactive |
| COC(=O)CCC12CCC(O1)c1ccccc12 (stereo unspecified) | > 200 | > 200 µM |  |
| CCCOC1=NC2=NC(OCCC)=NC3=C(Br)C=C(Br)C(=N1)N23 | > 42.7 | > 42.7 µM |  |
| CC1(O)c2ccccc2CCc2ccccc21 | > 32.4 | > 32.4 µM |  |
| Nc1c(F)c(F)c2c(c1F)N(CCCCCl)c1ccccc1S2 | > 200 | 21.9 µM |  |
| CCOC(=O)c1oc2cc(O)cc(O)c2c(=O)c1-c1ccc(OC)cc1 | > 200 | 21.9 µM |  |
| CCC(CCCN)Nc1cc(OC)cc2cccnc12 (stereo unspecified) | > 200 | 6.31 µM |  |
| CN(C)C1C(CO)OC(n2cnc3c(N)ncnc32)C1O (stereo unspecified) | > 200 | > 200 µM |  |
| C=CCC1CC(n2cc(C)c(=O)[nH]c2=O)OC1CO[Si](C)(C)C(C)(C)C (stereo unspecified) | > 200 | 18.2 µM |  |

| Structure (SMILES) | EC50 [µM] | IC50 | outcome |
| --- | --- | --- | --- |
| COc1ccc(-c2cc(-c3ccccc3)c(C#N)c(=O)[nH]2)cc1 | > 61.7 | > 61.7 µM |  |
| NC(CCC(=O)NC(CSSCCCCS(=O)O)C(=O)NCC(=O)O)C(=O)O (stereo unspecified) |  |  | inactive |
| Cc1c(C)c2c(c3c1OC(C)(C)CC3)CCC(C)(C)O2 | > 135 | 74.1 µM |  |
| COC(=O)/C(C#N)=C(\N)C(Cl)(Cl)Cl |  |  | inactive |
| COC(=O)c1c(C)cc(OC(=O)c2c(C)cc(O)c(/C=N\Nc3ccccc3)c2O)c(C)c1O | > 200 | 9.77 µM |  |
| CC(C)(C)CC(C)(C)c1ccc(OCCOCC[N+](C)(C)Cc2ccccc2)cc1 |  |  | inactive |
| CCOC(=O)C(C#N)C1=CC(=O)C(=O)c2ccc(O)cc21 (stereo unspecified) | > 457 | 209 µM |  |
| CCOC(=O)C1Cc2c(n(C3CCCCC3)c(=O)n(C)c2=O)OC1c1ccccc1 (stereo unspecified) | > 63.1 | 29.5 µM |  |
| CN1C(=O)C=C(C=Nc2ccc(-c3ccccc3)cc2)C2CCCCC21 (stereo unspecified) | > 200 | 2.29 µM |  |
| Cc1noc(NS(=O)(=O)c2ccc(N=c3c4ccccc4n(Cc4ccccc4)c4ccccc34)cc2)c1C |  |  | inactive |
| O=c1ccc(=O)n(-c2ccccc2)[nH]1 | > 955 | > 955 µM |  |
| Cc1noc(NS(=O)(=O)c2ccc(N)cc2)c1C | > 200 | > 200 µM |  |
| c1ccc2c3c([nH]c2c1)C1(CCCCC1)c1c([nH]c2ccccc12)C31CCCCC1 | > 6.92 | > 6.92 µM |  |
| CN=C(NC#N)N(Cc1ccccc1)Cc1ccccc1 | > 129 | > 100 µM |  |
| CC(=O)Oc1c(OC(C)=O)c(-c2ccc(O)c(O)c2)c(O)c(O)c1-c1ccc(O)cc1 | > 200 | 27.5 µM |  |
| CC[C@@]12CCC(=S)N(CCSc3ccccc3)[C@@H]1c1c(n(S(=O)(=O)c3ccc(OC)cc3)c3ccccc13)CC2 | > 200 | > 200 µM |  |
| OC1CC2C=CCC(C1)C2 (stereo unspecified) |  |  | inactive |
| O=C(Sc1c(-c2ccccc2)c(=O)n(-c2ccccc2)c(=S)n1-c1ccccc1)c1ccco1 | > 200 | 34.7 µM |  |
| O=C(Sc1c(-c2ccccc2)c(=O)n(-c2ccccc2)c(=S)n1-c1ccccc1)c1ccc(Cl)cc1 | > 200 | 19.5 µM |  |
| Cn1c(=O)c2c(c3cc(O)ccc31)OC(C(C)(C)O)C2 (stereo unspecified) | > 617 | 112 µM |  |
| CCOC(=O)C[N+]1(C)CCC(O)CC1 (stereo unspecified) | > 200 | > 200 µM |  |
| CCOC(=O)c1c(-c2ccc(OC)c(O)c2)c(C#N)c(=S)n(C2OC(COC(C)=O)C(OC(C)=O)C(OC(C)=O)C2OC(C)=O)c1-c1ccccc1 (stereo unspecified) | > 200 | 102 µM and 56.2 µM |  |

| Structure (SMILES) | EC50 [µM] | IC50 | outcome |
| --- | --- | --- | --- |
| CCCCCCCCCCCCN1C=C(C(N)=O)C(S(=O)(=O)O)c2ccccc21 (stereo unspecified) | 6.61 | 25.1 µM |  |
| CC1(C)OC(CCC#N)CN1C(=O)OCc1ccccc1 (stereo unspecified) | > 200 | 135 µM |  |
| Brc1ccc(-c2cc3c(cc2C2SCCS2)OCO3)cc1 | > 67.6 | > 67.6 µM |  |
| Cn1c(=O)c2c(nc(N/N=c3\scc(-c4ccc(Cl)cc4)n3Cc3ccccc3)n2C)n(C)c1=O | > 200 | 10.7 µM |  |
| N.N.N.N.O=C([O-])O.O=C([O-])[O-].[Co+3] |  |  | inactive |
| COc1ccc(C=C2C(=O)c3ccccc3C2=O)cc1 |  |  | inactive |
| CC1=NN(c2ccc(S(=O)(=O)O)cc2)C(=O)C1N=Nc1ccc(-c2ccc(N=Nc3ccc(OS(=O)(=O)c4ccc(C)cc4)cc3)c(S(=O)(=O)O)c2)cc1 (stereo unspecified) | 100 | 151 µM |  |
| COc1ccc(C2S/C(=C\c3cc(OC)c(OC)c(OC)c3)C(=O)N2NC(=O)Cc2ccccc2)cc1 (stereo unspecified) | > 36.3 | > 36.3 µM |  |
| N#Cc1cc2c(n(NS(=O)(=O)c3ccccc3)c1=O)CCC2 | > 200 | > 200 µM |  |
| CC(=O)CC(C)(C)S(=O)(=O)O | > 200 | > 200 µM |  |
| COc1cc(OC)cc(C2(C(=O)O)CCN(C)CC2)c1 | > 891 | 97.7 µM |  |
| O=C1CSc2ccncc2N1 | > 1510 | > 1510 µM |  |
| CCCN(CCCc1ccccc1)CCc1ccc2[nH]c(=S)[nH]c2c1 | > 200 | 35.5 µM |  |
| C=C1C(=O)O[C@H]2[C@H]3O[C@@H](C[C@@H]12)[C@@]1(C)CC[C@H](O1)[C@H](C)CCC[C@H]3C | > 20 | 1.07 µM |  |
| Cc1cccc2c(NCCCN(C)C)c3c([N+](=O)[O-])ccc(C)c3nc12 | > 2 | 0.162 µM |  |
| CC(C)C(=O)NCC[C@@H](CNC(=O)OC(C)(C)C)NC(=O)OC(C)(C)C | > 200 | > 200 µM |  |
| CC(C)CCCC(C)[C@H]1CC[C@H]2[C@@H]3CC[C@H]4C[C@@H](CCC=C(c5cc(Cl)c(OC(=O)c6ccccc6)c(C(=O)O)c5)c5cc(Cl)c(OC(=O)c6ccccc6)c(C(=O)O)c5)CC[C@]4(C)[C@H]3CC[C@]12C (stereo partly specified) | > 200 | > 200 µM |  |
| CC(=O)NC1C(OCc2ccccc2)OC(COC(=O)CCCCCCCCCCNC(=O)CCNc2ccc([N+](=O)[O-])c3[nH]c4ccc(O)cc4c(=O)c23)C(O)C1OC(C)C(=O)N[C@H](C(=O)N[C@H](CCC(=O)O)C(N)=O)C(C)C (stereo partly specified) | > 224 | 87.1 µM |  |
| O=C(c1ccccc1)c1cc2c([nH]c1=O)CCCCC2 | > 200 | 135 µM |  |
| Cc1nc2c(nc1C)C(=O)C(Cl)=CC2=O |  |  | inactive |
| O=[N+]([O-])OC1CCCC(O[N+](=O)[O-])c2c1n([O-])c1ccccc1[n+]2=O (stereo unspecified) | > 51.3 | 1.41 µM |  |
| CCOC(=O)C1(Cc2ccc(C)cc2)Cc2ccc(C)cc2C1=O (stereo unspecified) | > 200 | 4.68 µM |  |

| Structure (SMILES) | EC50 [µM] | IC50 | outcome |
| --- | --- | --- | --- |
| O=C1c2ccccc2C2(Br)C(=O)c3ccccc3C12 (stereo unspecified) |  |  | inactive |
| CNS(=O)(=O)NNS(=O)(=O)c1ccc(OC)cc1 | > 617 | 324 µM |  |
| C/C=C1/C(=C/c2[nH]c(/C=c3\[nH]/c(=C/C4=NC(=O)C(CC)=C4C)c(C)c3CCC(=O)O)c(CCC(=O)O)c2C)NC(=O)C1C (stereo unspecified) |  |  | inactive |
| CCOC(=O)Cn1c(=O)c2nc(SC)sc2n(-c2ccccc2)c1=O | > 200 | > 200 µM |  |
| N/N=c1\c2ccccc2c2ccc3c4ccccc4/c(=N\N)c3c12 | > 11.5 | > 11.5 µM |  |
| CCc1cc(Cc2cc(CC)c(NC(=O)C3=CC(=O)CC(c4ccc(OC)cc4)O3)c(CC)c2Cl)c(Cl)c(CC)c1NC(=O)C1=CC(=O)CC(c2ccc(OC)cc2)O1 (stereo unspecified) |  |  | inactive |
| c1ccc2c(c1)OCc1nccn1-2 | > 200 | 97.7 µM |  |
| COc1ccccc1NC(=O)C(C#N)=C(SC)SC | > 200 | 8.91 µM |  |
| O=C(CCNC12CC3CC(CC(C3)C1)C2)c1ccccc1 |  |  | inactive |
| Nc1ccc(C(=O)N/C(=C\c2ccc3c(c2)OCO3)c2nc3ccc4c(c3[nH]2)C(=O)c2ccccc2C4=O)cc1 |  |  | inactive |
| COC(=O)C1NC(C)(C(=O)OC)C2C(=O)NC(=O)C12 (stereo unspecified) | > 933 | > 933 µM |  |
| CCOC(=O)c1c2c(nc3c1CCC/C3=C\c1ccccc1)/C(=C/c1ccccc1)CCC2 | > 200 | > 200 µM |  |
| CC1(O)Cn2c(nc3nccnc32)S1 (stereo unspecified) | > 603 | 31.6 µM |  |
| COc1cc(Nc2nc3ccc(C(F)(F)F)cc3nc2C(=O)O)cc(OC)c1OC | > 200 | 27.5 µM |  |
| O=C1NC(N/N=C\C(O)C(O)C(O)CO)=N/C1=C/c1ccc(Cl)cc1 (stereo unspecified) | > 200 | 30.2 µM | inactive |
| CC1=NC(=Cc2cccc(Cl)c2)C(=O)N1n1c(-c2ccccc2)nc2ccccc2c1=O | > 200 | 36.3 µM |  |
| O=S1(=O)Cc2ccccc21 | > 1170 | 589 µM |  |
| COc1ccccc1NC(=S)Nc1cc(C)cc(C)n1 | > 200 | > 200 µM |  |
| COc1cc2c(cc1OC)[C@H]1C(COC(=O)Nc3ccccc3)CN1CC2 (stereo partly specified) | > 676 | 93.3 µM |  |
